Assay results: ChEMBL document CHEMBL5724914, “Linking interpersonal differences in gut microbiota composition and drug biotransformation activity” (2024)

Legend:
[1] = (§1) The drug is tested on Z-026 corresponding to metagenome with ENA study accession number: PRJEB37062 and ENA sample accession number: ERS12561825 for biotransformation under anaerobic condition. The drug concentrations were measured over 9 timepoints collected between 0 and 24 hours of incubation by liquid-chromatography-coupled mass spectrometry (LC–MS); conditions: 2 µM
[2] = (§2) The drug is tested on Z-024 corresponding to pig gut metagenome with ENA study accession number: PRJEB37062 and ENA sample accession number: ERS12561823 for biotransformation under anaerobic condition. The drug concentrations were measured over 9 timepoints collected between 0 and 24 hours of incubation by liquid-chromatography-coupled mass spectrometry (LC–MS); conditions: 2 µM
[3] = as §2, with “Z-020” for “Z-024”, “rabbit” for “pig”, “ERS12561819” for “ERS12561823”; conditions: 2 µM
[4] = as §2, with “Z-011” for “Z-024”, “mouse” for “pig”, “ERS12561811” for “ERS12561823”; conditions: 2 µM
[5] = as §1, with “Z-010” for “Z-026”, “ERS12561810” for “ERS12561825”; conditions: 2 µM
[6] = as §1, with “Z-005” for “Z-026”, “ERS12561805” for “ERS12561825”; conditions: 2 µM
[7] = as §2, with “WLS-310” for “Z-024”, “human” for “pig”, “ERS12561785” for “ERS12561823”; conditions: 2 µM
[8] = as §2, with “WLS-220” for “Z-024”, “human” for “pig”, “ERS12561769” for “ERS12561823”; conditions: 2 µM
[9] = as §2, with “WLS-090” for “Z-024”, “human” for “pig”, “ERS12561753” for “ERS12561823”; conditions: 2 µM
[10] = as §2, with “WLS-082” for “Z-024”, “human” for “pig”, “ERS12561751” for “ERS12561823”; conditions: 2 µM
[11] = as §2, with “WLS-069” for “Z-024”, “human” for “pig”, “ERS12561748” for “ERS12561823”; conditions: 2 µM
[12] = as §2, with “WLS-052” for “Z-024”, “human” for “pig”, “ERS12561747” for “ERS12561823”; conditions: 2 µM
[13] = as §2, with “WLS-039” for “Z-024”, “human” for “pig”, “ERS12561746” for “ERS12561823”; conditions: 2 µM
[14] = as §2, with “WLS-027” for “Z-024”, “human” for “pig”, “ERS12561744” for “ERS12561823”; conditions: 2 µM
[15] = human gut metagenome, 24 h, 2 µM
[16] = human gut metagenome, 24 h, 2 µM; remark: listed apart in the source
[17] = human gut metagenome, 24 h, 2 µM; remark: listed apart in the source
[18] = human gut metagenome, 24 h, 2 µM; remark: listed apart in the source
[19] = human gut metagenome, 24 h, 2 µM; remark: listed apart in the source
[20] = human gut metagenome, 24 h, 2 µM; remark: listed apart in the source

Measured: Bacterial Biotransformation
Further: call rule not given here.

CCN(CC)CCNC(=O)c1cc(Cl)c(N)cc1OC [METOCLOPRAMIDE]
Compound NOT metabolized: [1] | [2] | [3] | [4] | [5] | [6] | [7] | [8] | [9] | [10] | [11] | [12] | [13] | [14] | [15] | [16] | [17] | [18] | [19] | [20]

Nc1nc2ccc(OC(F)(F)F)cc2s1 [RILUZOLE]
Compound NOT metabolized: [15] | [18] | [19]
Compound metabolized: [1] | [2] | [3] | [4] | [5] | [6] | [7] | [8] | [9] | [10] | [11] | [12] | [13] | [14] | [16] | [17] | [20]

CCCCC(=O)N(Cc1ccc(-c2ccccc2-c2nnn[nH]2)cc1)[C@H](C(=O)O)C(C)C
Compound NOT metabolized: [1] | [2] | [3] | [4] | [5] | [6] | [8] | [18] | [19]
Compound metabolized: [7] | [9] | [10] | [11] | [12] | [13] | [14] | [15] | [16] | [17] | [20]

Cc1ccc(-c2nc3ccc(C)cn3c2CC(=O)N(C)C)cc1 [ZOLPIDEM]
Compound metabolized: [5] | [7] | [8] | [9] | [16] | [17]
Compound NOT metabolized: [1] | [2] | [3] | [4] | [6] | [10] | [11] | [12] | [13] | [14] | [15] | [18] | [19] | [20]

Fc1ccc([C@@H]2CCNC[C@H]2COc2ccc3c(c2)OCO3)cc1 [PAROXETINE]
Compound NOT metabolized: [1] | [3] | [4] | [12] | [18] | [19]
Compound metabolized: [2] | [5] | [6] | [7] | [8] | [9] | [10] | [11] | [13] | [14] | [15] | [16] | [17] | [20]

NC12CC3CC(CC(C3)C1)C2 [AMANTADINE]
Compound NOT metabolized: [1] | [2] | [3] | [4] | [5] | [6] | [7] | [8] | [9] | [10] | [11] | [12] | [13] | [14] | [15] | [16] | [17] | [18] | [19] | [20]

CCC(=O)NCC[C@@H]1CCc2ccc3c(c21)CCO3 [RAMELTEON]
Compound NOT metabolized: [1] | [4] | [6] | [18]
Compound metabolized: [2] | [3] | [5] | [7] | [8] | [9] | [10] | [11] | [12] | [13] | [14] | [15] | [16] | [17] | [19] | [20]

CC(CN1c2ccccc2Sc2ccccc21)N(C)C (stereo not given) [PROMETHAZINE]
Compound NOT metabolized: [1] | [3] | [4] | [6] | [10] | [12] | [15] | [17] | [18]
Compound metabolized: [2] | [5] | [7] | [8] | [9] | [11] | [13] | [14] | [16] | [19] | [20]
